According to PubChem BioAssay (NCI):
Several values for one entry are separate records, joined by “and”; a condition that tells them apart may be missing. Equal entries are not always repeated.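 All cell lines were grown in 96-well plates and treated with compound for 48 hours. At the GI50, growth is halved. TGI denotes the concentration required for complete inhibition of growth.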

Experiments:
Assay in all cases: NCI anticancer screen, dose series, 48 h
SF-539 CNS = test system: SF-539 CNS
M14 melanoma = test system: M14 melanoma
A549 NSCLC = test system: A549 NSCLC
SR leukemia = test system: SR leukemia
LOX IMVI melanoma = test system: LOX IMVI melanoma
HL-60(TB) leukemia = test system: HL-60(TB) leukemia
NCI/ADR-RES ovarian = test system: NCI/ADR-RES ovarian
BT-549 breast = test system: BT-549 breast
NCI-H23 lung = test system: NCI-H23 lung
DU-145 prostate = test system: DU-145 prostate

Row | Structure (SMILES) | TGI (SF-539 CNS) [µM] | GI50 (M14 melanoma) [µM] | TGI (M14 melanoma) [µM] | GI50 (A549 NSCLC) [nM] | TGI (A549 NSCLC) [µM] | TGI (SR leukemia) [µM] | GI50 (LOX IMVI melanoma) [nM] | TGI (LOX IMVI melanoma) [µM] | GI50 (HL-60(TB) leukemia) [µM] | TGI (HL-60(TB) leukemia) [µM] | GI50 (NCI/ADR-RES ovarian) [µM] | TGI (NCI/ADR-RES ovarian) [µM] | GI50 (BT-549 breast) [nM] | TGI (BT-549 breast) | GI50 (NCI-H23 lung) [nM] | TGI (NCI-H23 lung) [µM] | TGI (DU-145 prostate) [µM]
1 | CCCCCCCCCCC1OC([C@@H](O)CC[C@H](O)C2CC[C@@H](CCCCCCCC(O)CC3=CC(C)OC3=O)O2)CCC1O (some centres not stated) | > 25 | 4.81 | > 17.5 | 2490 | > 25 | 16.5 | 1710 | > 12.5 | 4.47 | > 25 | 6.4 | > 25 | 2340 | 7.53 µM and > 25 µM | 1350 | > 25 | > 25
2 | Nc1nn2c(nc(N)c3c(N)[nH]nc32)c1N=Nc1ccc(Br)cc1 | 49.6 | – | > 53.6 | – | > 100 | > 100 | – | 22.6 | – | 77.9 | – | > 100 | – | 15.5 µM | – | > 7.37 | > 100
3 | O=C(O)CC1NCc2cc3ccccc3nc21 (configuration not stated) | > 100 | – | > 100 | – | > 100 | > 100 | – | > 100 | – | > 100 | – | > 100 | – | > 100 µM | – | > 100 | > 100
4 | COc1c(O)cc2c(c1O)C(=O)/C(=C/c1ccc(O)cc1)CO2 | 48.9 | – | 61.1 | – | > 100 | 40.9 | – | 53.1 | – | > 100 | – | 57 | – | > 100 µM | – | > 100 | 78.1
